# Reference: patent US11458138B2 (Novartis AG, priority 2017, dated 2022)
# What was measured:
# [1] = system: YAP phosphorylation in limbal stem cells (LSCs); assay: YAP dephosphorylation in LSCs by Western blot; type: cell-based, human; conditions: within one hour of treatment
# limbal stem cells (LSCs) [2] = assay: LSC population expansion, p63-alpha immunolabelling and cell count; type: cell-based, human; conditions: for LSC colony formation and p63alpha expression: up to 6 days in culture, vs growth medium and DMSO
# Description: FIG. 2A: In the presence of growth medium and DMSO, only a few isolated cells attach to the culture dish and survive up to 6 days. Most cells expressed the human nuclear marker, but few expressed p63alpha. FIGS. 2B and 2C: In contrast, in the presence of LATS inhibitors: compound example no. 49 and example no. […] FIG. 2D: Passaging cells and culturing them in the presence of LATS inhibitor compound example no.
# (§1) If it is desired to measure the cell number or expansion of the cell population, this may be done for example by taking an aliquot and performing immunocytochemistry (e.g. to count nuclei stained with Sytox Orange) or by live cell imaging under brightfield microscope to count the number of cells or by performing real-time quantitative live-cell analysis of cell confluence at various time points during the cell population expansion phase of the method according to the invention.
# The Sytox Orange assay may be performed according to standard protocols known in the art. In brief, after cells have attached to the cell culture dish (typically 24 h after cell plating), the cells are fixed in paraformaldehyde. The cells are then permeabilized (e.g. using a solution of 0.3% Triton X-100) and they are then labeled in a solution of Sytox Orange (e.g. using 0.5 micromolar of Sytox Orange in PBS). The number of nuclei stained with Sytox Orange per surface area are then counted under a Zeiss epifluorescence microscope.
# (2) The cell preparation comprises more than 6% p63alpha positive cells. Preferably the cell preparation comprises more than 10%, 20%, 30%, 40%, 50%, 60%, 70%, 80% or 90% p63alpha positive cells. In a preferred embodiment the cell preparation comprises more than 95% p63alpha positive cells. The percentage of p63alpha cells may be measured by immunohistochemistry or FACS.
# limbal stem cells (LSCs) [3] = assay: Differentiation of expanded LSCs into corneal epithelium cells (p63alpha / keratin 12); type: cell-based, human; conditions: transferred to conditions that enable differentiation
# Description: Shown are views where the transition from the p63alpha-positive cell identity to the keratin-12 identity are occurring.
# These characteristics can be observed by immunohistochemistry or FACS.
# [4] = system: YAP phosphorylation in CECs; assay: YAP dephosphorylation in CECs by Western blot; type: cell-based, human; conditions: within one hour of treatment, normalized to beta-actin and total YAP
# Description: As shown in FIG. 15a by Western blot; FIG. 15b: graph showing phosphorylated YAP levels normalized to beta-actin; and FIG. 15c: graph showing phosphorylated YAP levels normalized to total YAP.
# [5] = system: Corneal Endothelial Cells (CECs); assay: CEC proliferation, Incucyte confluence by real-time live-cell analysis; type: cell-based, human; conditions: vs vehicle DMSO
# Description: FIG. 16: CECs grown in presence or absence of LATS inhibitors. An Incucyte system (Essen Biosciences) was used to measure CEC confluence by real-time quantitative live-cell analysis over a time course. Compound ex. 49 (black squares) and ex.
# as §1
# YAP in human LSCs = assay: Intracellular YAP distribution in limbal epithelial cells (LSCs); type: cell-based; conditions: 10 micromolar, 24 hours, vs DMSO
# Method: Cells obtained as described in Example B1 were plated in glass-bottom black wall 24-well dishes in limbal epithelium cell culture medium (DMEM F12 supplemented with 10% human serum and 1.3 mM calcium chloride) supplemented with LATS inhibitor compound example no. […] Cells were cultured under these conditions for 24 hours at 37° C. in 5% CO2.
# To measure the effect of the LATS inhibitors on the downstream target YAP, intracellular YAP distribution was analyzed by immunohistochemistry. Cell cultures were fixed with 4% PFA for 20 minutes, permeabilized and blocked in a blocking solution of 0.3% Triton X-100 (Sigma-Aldrich) and 3% donkey serum in PBS for 30 minutes. Cells were then labeled with primary antibody in the blocking solution for 12 hours at 4° C. Primary antibody used was anti-YAP from Santa Cruz Biotechnology. Samples were washed in PBS three times and donkey-raised secondary antibody Alexa Fluor 488 (Molecular Probes) at 1:500 dilution were applied for 30 minutes at room temperature. […] Fluorescence was observed using a Zeiss LSM 880 confocal microscope.
# [6] = system: phospho-YAP (ser127) in human LSCs; assay: YAP phosphorylation by western blot in LSCs; type: cell-based; conditions: 10 micromolar, 1 hour
# Method: Cells obtained as described in Example B1 were detached from the culture dish with Accutase for 10 minutes at 37° C., cell suspensions were rinsed by centrifugation and plated in DMEM F12 supplemented with 10% human serum and 1.3 mM calcium chloride in 6-well plates (Corning) and cultured without LATS inhibitor compounds for 2-4 days.
# The medium was then replaced by fresh limbal epithelium cell culture medium (DMEM F12 supplemented with 10% human serum and 1.3 mM calcium chloride) supplemented with LATS inhibitor compound example no. […] Cells were cultured under these conditions for 1 hour at 37° C. in 5% CO2.
# To measure the effect of the LATS inhibitors on the downstream target YAP, the YAP phosphorylation levels were measured by western blot as follows. The cell pellets were obtained by trypsin dissociation and centrifugation and washed with PBS. The pellets were lysed with 30 microlitres of RIPA lysis buffer containing protease inhibitor cocktail (Life Technologies) for 30 minutes, with vortexing every 10 minutes. The cell debris were then pelleted at 4° C. for 15 minutes at 14 k rpm and the protein lysate was collected. Protein concentration was quantified using a micro BCA kit (Pierce). Fifteen micrograms of total protein was loaded in each well of 4-20% TGX gels (BioRad) and Western blotting was performed according to the manufacturer's instructions. […]
# [7] = system: phospho-YAP (ser127) in human CECs; assay: YAP phosphorylation by western blot in CECs; type: cell-based; conditions: 10 micromolar, 1 hour
# Method: Cells obtained as described in Example C1 were detached from the culture dish with 1 mg/ml collagenase for 15 minutes at 37° C., cell suspensions were rinsed by centrifugation and plated in corneal endothelial cell culture medium (human endothelial SF medium (Invitrogen) with human serum) in 6-well plates (Corning) and cultured for 2 to 4 days. The medium was then replaced by fresh corneal endothelial cell culture medium (human endothelial SF medium (Invitrogen) with human serum) supplemented with LATS inhibitor, compound example no. […] Cells were cultured under these conditions for 1 hour at 37° C. in 5% CO2.
# Cell pellets were obtained by trypsin dissociation and centrifugation and washed with PBS. The pellets were lysed with […] of RIPA lysis buffer containing protease inhibitor cocktail (Life Technologies) for 30 minutes, with vortexing every 10 minutes. The cell debris were then pelleted at 4° C. for 15 minutes at 14k rpm and the protein lysate was collected. Protein concentration was quantified using a micro BCA kit (Pierce). Fifteen (15) micrograms of total protein was loaded in each well of 4-20% TGX gels (BioRad) and Western blotting was performed according to the manufacturer's instructions. […] Membranes were stained with HRP-conjugated secondary antibodies, rinsed and imaged using a ChemiDoc system (Biorad) according to the manufacturer's instructions.
SMILES,YAP dephosphorylation in LSCs [1],LSC population expansion after passaging (limbal stem cells (LSCs) [2]; passaged cells cultured for two weeks),LSC colony formation and p63alpha expression (limbal stem cells (LSCs) [2]),differentiation of expanded LSCs into corneal epithelium cells (keratin 12) (limbal stem cells (LSCs) [3]),YAP dephosphorylation in CECs [4],CEC proliferation (confluence over time) [5],YAP immunostaining in the nucleus of LSCs (YAP in human LSCs),YAP phosphorylation levels in human LSCs (western blot) [6],YAP phosphorylation levels in human CECs (western blot) [7]
"CC(C)(O)CC(C)(C)Nc1nc(-c2ccncc2)nc2cnccc12 [Example 49, 2,4-dimethyl-4-{[2-(pyridin-4-yl)pyrido[3,4-d]pyrimidin-4-yl]amino}pentan-2-ol]",induce YAP dephosphorylation,enabled cell population expansion and the formation of confluent cultures expressing p63alpha,formed colonies and expressed p63alpha,can differentiate into corneal epithelium cells,induce YAP dephosphorylation,induced strong CEC proliferation,stronger in the nucleus,reduction in YAP phosphorylation levels,reduction in YAP phosphorylation levels in human CECs
"Cc1n[nH]cc1-c1nc(NC2(C)CC2)c2ccncc2n1 [Example 133, 2-(3-methyl-1H-pyrazol-4-yl)-N-(1-methylcyclopropyl)pyrido[3,4-d]pyrimidin-4-amine]",induce YAP dephosphorylation,–,formed colonies and expressed p63alpha,–,induce YAP dephosphorylation,induced strong CEC proliferation,stronger in the nucleus,reduction in YAP phosphorylation levels,reduction in YAP phosphorylation levels in human CECs
"CC(C)(C)Nc1cc(-c2ccncc2)nc2cnccc12 [Example 261, N-(tert-butyl)-2-(pyridin-4-yl)-1,7-naphthyridin-4-amine]",–,–,–,can differentiate into corneal epithelium cells,–,–,–,–,–
